From US20250170252A1, “QUINONE PROTECTED FORMS AND CONJUGATES” (CAMBRIDGE ENTERPRISE LIMITED, priority 2022, published 2025)
Where two headings read alike, the source gives them in different places.

Legend:
[1] = pH-rate aqueous kinetic analysis of fragmentation (para-aminobenzyl ketols); assay type: physicochemical; details: for pH at which elimination rate peaks / half-life at 0.155 mM: citrate-phosphate buffer; for half-life at 0.155 mM: pH 7, pH 7, read-out: release t1/2 (converted)
Protocol: pH-rate analysis was performed by adaption of the PenG assay. To obtain deprotected para-aminobenzyl ketol species, 2-phenylacetyl protected ketol was dissolved in PBS with 33% DMF to a concentration of 3.3 mM. 20 μL of a stock solution of PenG was added to 600 μL of this stock and incubated for 20 min at 37° C. 20 μL of a 100 mM stock of internal standard in DMSO was added. Reactions were then set up immediately. For a reaction, 10 μL of the amino-benzyl ketol/standard stock was added to 190 μL of citrate-phosphate buffer at the specified pH to obtain an aqueous solution containing 1.8% DMSO. Test samples were incubated at 37° C. with shaking. At the recorded time points, 20 μL aliquots of the reactions were analysed by HPLC (254 nm, ThermoFisher U3000). HPLC conditions: column Phenomenex Kinetex C18 5 μm, 50×4.6 mm, 100 Å; solvent system A=H2O, B=acetonitrile; flow=1 mL/min. Gradient and solvent system for assay with PAB-PhQ 7: A=H2O, B=acetonitrile, t=0-1 min 0% B, t=1-10 min 0-100% B, t=10-11 min 0% B. Gradient and solvent system for assay with PAB-BL 10 and PAB-DN 18: A=H2O+0.1% formic acid, B=acetonitrile+0.1% formic acid, t=0-1 min 0% B, t=1-10 min 0-40% B, t=10-16 min 40-50% B, t=16.1 min 100% B, t=16.1-18 min 100% B, t=18-20 min 0% B. Values described represent peak area (mAU*min) divided by peak area of internal standard. Where necessary, peaks were deconvoluted using Origin fitting software. Recorded values are averages of three independent reactions and error bars display standard error of the mean. Values were fitted using GraphPad Prism software. Rate and half-life measurements were calculated based on disappearance of the para-aminobenzyl ketol species.

[2] = tested on: Panc-1 pancreatic cancer cell line; test: CellTiter Glo viability assay, Panc-1; assay type: cell-based; details: for IC50: Homo sapiens, PANC-1, 48 h; for toxicity without the β-glucuronidase enzyme: Panc-1, up to 100 μM
Protocol: (§1) For CellTiter Glo viability assays, 10,000 cells per well were plated on Day 1 and were allowed to adhere to the plate surface for 24 hours. Optimized concentration ranges of prodrugs were determined and made via serial dilution. […] Cells were incubated with compound for 48 hours and viability was assessed on Day 4 using the CellTiter Glo Viability assay which measures metabolically active cells by quantifying the amount of ATP present.
(§2) Panc-1 cells were obtained from Tony Kouzarides' lab in the Gurdon Institute at the University of Cambridge and put into culture at passage 10 containing DMEM media (Gibco) supplemented with 1% Pen-Strep antibiotic (Gibco), 1% L-glutamine, and 10% fetal bovine serum (FBS, sterile-filtered). Aspc-1 cells were bought commercially from the American Type Culture Collection (ATCC) and put into culture containing RPMI 1640 media (Gibco) supplemented with 1% Pen-Strep antibiotic (Gibco), 1% L-glutamine, and 20% fetal bovine serum (FBS, sterile-filtered). All cell lines were started at passage 10 and passaged every 3 days by centrifuging at 1000 rpm for 4 minutes.

[3] = tested on: Aspc-1 pancreatic cancer cell line; test: CellTiter Glo viability assay, Aspc-1; assay type: cell-based; details: for toxicity without the β-glucuronidase enzyme: Aspc-1, up to 100 μM; for IC50: Homo sapiens, ASPC1, 48 h
Protocol: as §1, §2

[4] = Glucuronide kinetics assay (release of β-lapachone after β-glucuronide deprotection); assay type: physicochemical
Protocol: Glucuronide prodrug (37a, b, c, d) was dissolved in DMSO to a concentration of 10 mM. A 100 mM stock solution of warfarin in DMSO was also prepared. To obtain deprotected para-hydroxybenzyl ketol species, the glucuronide stock solution was dissolved in PBS with 16.7% DMF to a concentration of 1.7 mM. 15 μL of a stock solution of R-glucuronidase from E. coli K-12 (Roche #03707580001, 140 U/mL) was added to 900 μL of this stock and incubated for 20 min at 37° C. 15 μL of a 100 mM stock of warfarin internal standard in DMSO was added. Reactions were then set up immediately. For a reaction, 30 μL of the amino-benzyl ketol/standard stock was added to 195 μL of citrate-phosphate buffer at the specified pH. Test samples were incubated at 37° C. with shaking. At the recorded time points, 20 μL aliquots of the reactions were analysed by HPLC (254 nm, Agilent 1260 Infinity). HPLC conditions: column Agilent InfinityLab Poroshell 120 SB—C18 2.7 μm, 50×4.6 mm; solvent system A=H2O+0.1% TFA, B=acetonitrile+0.1% TFA; flow=1 mL/min. Gradient: t=0-1 min 0% B, t=1-2 min 0-30% B, t=2-17 min 30-40% B, t=17-17.1 min 40-100% B, t=17.1-18 min 100% B, t=18-23 min 0% B. Relative peak area represents raw peak area (mAU*s) normalized to raw peak area of the warfarin internal standard. Values recorded are averages of three independent reactions and error bars display standard error of the mean. Values were fitted to first-order kinetics using GraphPad Prism 9 software. A positive control experiment was performed under identical conditions with known substrate 4-nitrophenyl-β-D-glucuronide (Sigma Aldrich) to confirm enzyme activity.

[5] = Penicillin-G amidase mediated kinetic analysis of elimination at physiological pH; assay type: physicochemical; details: pH 7.4, 37° C.
Protocol: Stocks of 2-phenylacetyl-para-aminobenzyl ketol were made up in DMF at a concentration of 10 mM. For a reaction, 17.5 μL of ketol stock was added to 17.5 μL of a 10 mM stock of internal standard in DMF and 310 μL of PBS at pH 7.4. To initiate a reaction, 5 μL of a suspension of Penicillin-G amidase (PenG, Sigma Aldrich enzyme 76427, 5-10 U/mg) was added. In control samples 5 μL of PBS was added in place of the enzyme. Test and control samples were then incubated at 37° C. with shaking. At the recorded time points, 20 μL aliquots of the reactions were analysed by HPLC (254 nm, ThermoFisher U3000). HPLC column: Phenomenex Kinetex C18, 5 μm, 50×4.6 mm, 100 Å; flow=1 mL/min. Gradient and solvent system for assay with 2-phenylacetyl-PAB-PhQ 21: A=H2O, B=acetonitrile, t=0-1 min 0% B, t=1-10 min 0-100% B, t=10-11 min 0% B. Gradient and solvent system for assay with 2-phenylacetyl-PAB-BL 22 and 2-phenylacetyl-PAB-DN 23: A=H2O+0.1% formic acid, B=acetonitrile+0.1% formic acid, t=0-1 min 0% B, t=1-10 min 0-40% B, t=10-16 min 40-50% B, t=16.1 min 100% B, t=16.1-18 min 100% B, t=18-20 min 0% B. Peaks were identified by LCMS analysis and comparison with pure compounds. Values described represent peak area (mAU*min) divided by peak area of internal standard. Recorded values are averages of three independent reactions and error bars display standard error of the mean. Fitting was performed using GraphPad Prism 8 software. Rate and half-life measurements were calculated by consumption of intermediate para-aminobenzyl ketol and formation of product quinone.

[6] = 1H NMR kinetic analysis of elimination of PAB-PhQ; assay type: physicochemical; details: 25° C., moderately acidic methanolic solution
Protocol: Kinetics of the release of PhQ 4, from PAB-PhQ 7 were monitored by ^1H NMR at 25° C. Analysis was performed in MeOD due to poor solubility of the compound in H2O. To form the active eliminating species, Boc-PAB-PhQ 6 was dissolved in dichloromethane/trifluoroacetic acid 4:1 at 0° C. and stirred for 30 min, upon which the reaction appeared complete by thin-layer chromatography. Product 7 was dried in vacuo before being dissolved in MeOD. Basicity of the solution was altered by addition of triethylamine (drops). pH was estimated using pH paper. pH values are indicative only as analysis is performed in MeOD. Elimination rates were determined from the aromatic region. Kinetics were measured by monitoring the integral of one peak, normalised to number of protons present (i.e. integral of 1H), divided by the total integral of the aromatic region (δ=6.2-8.6 ppm, i.e. integral of 12H). Analysis was performed using Mestrenova 8.0 processing software and rate constants were calculated using GraphPad Prism v8.0 software.

[7] = tested on: MOLM-13; test: Viability assay with small molecule prodrugs, Trypan Blue exclusion, MOLM-13; assay type: cell-based; details: 5 μM, 24 h timepoint
Protocol: For assays assessing cytotoxicity of β-lapachone versus small molecule dipeptide prodrugs, suspension cells were plated into 24 well plates at a density of 2.5×10^5 cells/mL in 240 μL. Serial dilutions of compound were made up in PBS. 60 μL of each stock of either PBS, or compound in PBS was added to the cells to achieve the desired final concentration. After the specified incubation time, toxicity was assessed by counting of live cells using the Trypan Blue exclusion method with a Countess II Automated Cell Counter (ThermoFisher Scientific) according to the manufacturer's instructions. Cell viability was determined by division of average live cell number of treated wells by average live cell number for control wells treated with PBS only. Values recorded are the mean of three repeat wells, with error bars representing the standard error of the mean for each concentration tested. IC50 values were calculated using GraphPad Prism software.

Molecule: para-Aminobenzyl dunni-ketol [Compound 18]
- elimination rate compared with PAB-BL 10 ([1]; 37° C., range of pH values): very similar rate

Molecule: CC1(C)CCC2=C(O1)c1ccccc1C(O)(Cc1cc(F)c(O[C@@H]3O[C@H](C(=O)O)[C@@H](O)[C@H](O)[C@H]3O)c(F)c1)C2=O (stereo partly drawn) [Compound 37b, (2S,3S,4S,5R,6S)-6-(2,6-difluoro-4-((6-hydroxy-2,2-dimethyl-5-oxo-3,4,5,6-tetrahydro-2H-benzo[h]chromen-6-yl)methyl)phenoxy)-3,4,5-trihydroxytetrahydro-2H-pyran-2-carboxylic acid]
- IC50 [2]: 13.4 µM
- toxicity without the β-glucuronidase enzyme [2]: no toxicity
- toxicity without the β-glucuronidase enzyme [3]: no toxicity
- IC50 [3]: 24.4 µM
- elimination rate compared with plain PHB linker ([4]; pH 3-7 (FIG. 6)): faster
- elimination rate compared with plain PHB linker 37a ([4]; pH 3-8.5 (FIG. 7)): faster
- release rate of β-lapachone, kobs ([4]; pH 7, 37° C., after β-glucuronide deprotection, first experiments): 2.68e-06 s⁻¹
- quinone release rate, kobs ([4]; pH 7, additional fragmentation experiments): 4.2e-06 s⁻¹
- elimination rate compared with plain PHB linker ([4]; pH 8-10 (FIG. 6)): slower
- elimination rate compared with plain PHB linker 37a ([4]; pH 9-10 (FIG. 7)): slower

Molecule: O=C(Cc1ccccc1)Nc1ccc(CC2(O)C(=O)c3ccccc3-c3ccccc32)cc1 (centres unmarked) [Compound 21, 2-Phenyl-acetyl-para-aminobenzyl phenanthrene-ketol]
- formation of PhQ 4, rate kobs ([5]; following addition of Penicillin-G amidase to 21): 1.15 (±0.66)×10^−5 s^−1
- stability without added enzyme ([5]; no Penicillin-G amidase): stable

Molecule: Nc1ccc(CC2(O)C(=O)c3ccccc3-c3ccccc32)cc1 (centres unmarked) [Compound 7, 10-(4-aminobenzyl)-10-hydroxyphenanthren-9(10H)-one]
- elimination of 7, rate kobs ([5]; intermediate 7 generated from 21): 9.72 (±2.88)×10^−6 s^−1
- pH at which elimination rate peaks ([1]; 37° C.): 5-6
- rate of consumption of 7 (kobs) ([6]; first-order fit): 6.18±0.12×10^−5 s^−1
- rate of formation of product 4 (kobs) ([6]; from 7): 6.55±0.22×10^−5 s^−1
- time to complete release ([6]; release of 4 from 7): ≤ 20 h

Molecule: CC(=O)Oc1c2c(c3ccccc3c1OC(C)=O)OC(C)(C)CC2 [Compound 29, 2,2-dimethyl-3,4-dihydro-2H-benzo[h]chromene-5,6-diyl diacetate]
- toxicity to MOLM-13 [7]: complete cell death

Molecule: COc1cc(O[C@@H]2O[C@H](C(=O)O)[C@@H](O)[C@H](O)[C@H]2O)ccc1CC1(O)C(=O)C2=C(OC(C)(C)CC2)c2ccccc21 (single isomer, unassigned) [Compound 37d]
- IC50 [2]: 0.904 µM
- toxicity without the β-glucuronidase enzyme [2]: no toxicity
- toxicity without the β-glucuronidase enzyme [3]: no toxicity
- IC50 [3]: 2.99 µM
- release rate compared with other derivatives ([4]; pH 6-10 (FIG. 7)): orders of magnitude faster release

Molecule: CC1(C)CCC2=C(O1)c1ccccc1C(O)(Cc1ccc(N)cc1)C2=O (centres unmarked) [Compound 10, 6-(4-aminobenzyl)-6-hydroxy-2,2-dimethyl-2,3,4,6-tetrahydro-5H-benzo[h]chromen-5-one]
- pH at which elimination rate peaks ([1]; 37° C.): 3
- half-life at 0.155 mM ([1]; additional repeats of the experiments): 542 days
- half-life at 0.155 mM ([1]; initially reported value): 32.9 days
- release rate kobs ([1]; pH 7, initially reported value): 2.4e-07 s⁻¹
- elimination resulting in formation of 1 ([1]; pH≥6 within 72 h, 37° C.): Negligible elimination
